Legend:
mice [1] = details: mice treated with MPTP; cited from earlier work
mice [2] = details: reported by Addex 2010; cited from earlier work
mice [3] = details: reported by Addex 2010; cited from earlier work; remark: listed apart in the source
rats = details: cited from earlier work
human mGlu4 receptor = target: T1, human mGlu4 receptor (Homo sapiens, UniProt Q14833); assay: Ca2+ mobilization in vitro assay on recombinant human mGlu4 expressed in HEK293 cells; format: cell-based; details: HEK-293 cells stably expressing human mGlu4; L-AP4 added at EC20; Fluo-4 fluorescence; read-out: EC50 (uM) mGlu4 PAM
T1 construct: expressed in transfected cells; host or cells: HEK-293 (monoclonal, stably transfected)
T1 sequence (Q14833 33-912): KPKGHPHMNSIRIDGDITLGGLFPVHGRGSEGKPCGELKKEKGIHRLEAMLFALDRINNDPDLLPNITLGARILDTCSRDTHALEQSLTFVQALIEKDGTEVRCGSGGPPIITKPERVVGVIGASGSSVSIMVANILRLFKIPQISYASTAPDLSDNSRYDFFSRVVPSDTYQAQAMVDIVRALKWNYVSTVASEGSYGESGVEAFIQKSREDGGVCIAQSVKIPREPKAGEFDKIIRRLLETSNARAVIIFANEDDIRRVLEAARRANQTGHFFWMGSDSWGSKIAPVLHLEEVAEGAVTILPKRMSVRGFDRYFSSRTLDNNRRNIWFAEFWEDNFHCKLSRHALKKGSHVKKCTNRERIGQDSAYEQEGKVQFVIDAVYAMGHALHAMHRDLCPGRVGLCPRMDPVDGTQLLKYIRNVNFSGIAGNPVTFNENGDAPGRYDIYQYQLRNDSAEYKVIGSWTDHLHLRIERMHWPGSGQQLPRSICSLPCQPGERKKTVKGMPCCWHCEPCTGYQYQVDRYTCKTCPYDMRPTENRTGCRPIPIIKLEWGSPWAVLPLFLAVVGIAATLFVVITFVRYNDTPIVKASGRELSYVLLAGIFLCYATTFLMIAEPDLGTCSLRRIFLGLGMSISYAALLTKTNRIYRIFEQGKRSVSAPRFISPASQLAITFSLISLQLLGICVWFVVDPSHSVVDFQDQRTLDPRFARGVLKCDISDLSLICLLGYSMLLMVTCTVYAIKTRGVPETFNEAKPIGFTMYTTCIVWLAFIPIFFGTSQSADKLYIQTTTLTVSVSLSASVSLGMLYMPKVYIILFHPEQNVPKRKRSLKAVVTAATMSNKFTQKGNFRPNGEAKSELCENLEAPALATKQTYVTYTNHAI

rodent = details: 6-OHDA rodent model of PD; cited from earlier work

Structure (SMILES) | EC50 (human mGlu4 receptor) | further results
O=C(Nc1ccccc1)C12CC1/C(=N\O)c1ccccc1O2 (single isomer, unassigned; (-)) [(−)-PHCCC] |  | nigrostriatal degeneration (mice [1]): reduced nigrostriatal degeneration
Cc1ccnc(Nc2nc(-c3cn[nH]c3)c(C)s2)n1 [ADX88178] |  | activity in marble burying test (mice [2]): active; activity in EPM (mice [3]): active; profile in rat EPM test (rats; rat, after oral dosing): anxiolytic-like profile; activity in EPM (rats; rats, reported by Addex 2010): active
CC(C)(C)c1cnn(-c2cc(F)c(N3C(=O)C4(CC4)n4c(C5(O)COC5)cnc43)c(F)c2)c1 [Example 52, 7′-[4-(4-tert-butylpyrazol-1-yl)-2,6-difluoro-phenyl]-3′-(3-hydroxyoxetan-3-yl)spiro[cyclopropane-1,5′-imidazo[1,2-a]imidazole]-6′-one] | 0.905 µM | 
CS(=O)(=O)c1cnc2n1C1(CC1)C(=O)N2c1c(F)cc(C#Cc2ccccc2)cc1F [Example 53, 3′-[2,6-Difluoro-4-(2-phenylethynyl)phenyl]-6′-methanesulfonyl-2′,3′-dihydrospiro[cyclopropane-1,1′-imidazo[1,2-a][1,3]diazole]-2′-one] | 0.69 µM | 
O=C1CCN1c1cnc2n1C1(CC1)C(=O)N2c1c(F)cc(C#Cc2cccnc2)cc1F [Example 54, 7′-[2,6-difluoro-4-[2-(3-pyridyl)ethynyl]phenyl]-3′-(2-oxoazetidin-1-yl)spiro[cyclopropane-1,5′-imidazo[1,2-a]imidazole]-6′-one] | 0.808 µM | 
O=C1N(c2c(F)cc(C#Cc3ccccc3)cc2F)c2ncc(CO)n2C12CC2 [Example 55, 7′-[2,6-difluoro-4-(2-phenylethynyl)phenyl]-3′-(hydroxymethyl)spiro[cyclopropane-1,5′-imidazo[1,2-a]imidazole]-6′-one] | 0.294 µM | 
N[C@@H](CCP(=O)(O)O)C(=O)O [L-AP4, (2S)-2-amino-4-phosphonobutanoic acid] |  | neuroprotection (rodent): neuroprotective effects

Second part, led by results:

EC50 (human mGlu4 receptor) | Structure (SMILES) | further results
0.834 µM | O=C(Nc1cc(F)c(N2C(=O)C3(CC3)n3c(CO)cnc32)c(F)c1)c1ccccn1 [Example 56, N-[3,5-difluoro-4-[3′-(hydroxymethyl)-6′-oxo-spiro[cyclopropane-1,5′-imidazo[1,2-a]imidazole]-7′-yl]phenyl]pyridine-2-carboxamide] | 
0.572 µM | CC(O)c1cnc2n1C1(CC1)C(=O)N2c1c(F)cc(NC(=O)c2ccccn2)cc1F (centres unmarked) [Example 57, N-[3,5-difluoro-4-[3′-(1-hydroxyethyl)-6′-oxo-spiro[cyclopropane-1,5′-imidazo[1,2-a]imidazole]-7′-yl]phenyl]pyridine-2-carboxamide] | 
0.842 µM | CC(O)c1cnc2n1C1(CC1)C(=O)N2c1c(F)cc(-n2cc(C(C)(C)C)cn2)cc1F (centres unmarked) [Example 58, 7′-[4-(4-tert-butylpyrazol-1-yl)-2,6-difluoro-phenyl]-3′-(1-hydroxyethyl)spiro[cyclopropane-1,5′-imidazo[1,2-a]imidazole]-6′-one] | 
0.824 µM | CC(O)c1cnc2n1C1(CC1)C(=O)N2c1c(F)cc(C#Cc2ccccc2)cc1F (centres unmarked) [Example 59, 7′-[2,6-difluoro-4-(2-phenylethynyl)phenyl]-3′-(1-hydroxyethyl)spiro[cyclopropane-1,5′-imidazo[1,2-a]imidazole]-6′-one] | 

Source: US11345708B2, “Substituted imidazo[1,2-a]imidazoles as modulators of metabotropic glutamate receptor 4 activity” (Hoffmann-La Roche Inc., priority 2017, dated 2022)
